57 compounds from patent US20100022559A1, “BISOXIMES AS FUNGICIDES” (BAYER CROPSCIENCE AG, priority 2006, published 2010) can be followed below.

A short description of the data set: logP determination by HPLC on a reversed-phase column (C 18), EEC Directive 79/831 Annex V.A8. The format is physicochemical. The method, then:
The stated logP values were determined in accordance with EEC Directive 79/831 Annex V.A8 by HPLC (high performance liquid chromatography) on a reversed-phase column (C 18). Temperature: 43° C.

Molecules are shown by their SMILES.

For the compound `CC(=NOCC(C)CON=C(C)c1ccc2ccc(C)cc2n1)c1ccc2ccc(C)cc2n1` (stereo not shown) [compound 748], the logP is 7.36^[b] (method marked [b] in Table 1) and 7.36^[c] (method marked [c] in Table 1).

As to `C=C(CON=C(C)c1ccc2ccc(C)cc2n1)CON=C(C)c1ccc2ccc(C)cc2n1` [compound 749], the logP was 7.36^[b] (method marked [b] in Table 1) and 7.36^[c] (method marked [c] in Table 1). As for `Cc1cc(C)nc(C(N)=NOC/C=C\CON=C(N)c2nc(C)cc(C)n2)n1` [compound 773], the logP (value marked [b]) is 1.75^[b]. As to `Cc1nc(C(N)=NOC/C=C/CON=C(N)c2nc(C)c(Cl)c(C)n2)nc(C)c1Cl` [compound 774], the logP (value marked [b]) is 2.70^[b]. On to `Cc1nc(C(N)=NOC/C=C\CON=C(N)c2nc(C)c(Cl)c(C)n2)nc(C)c1Cl` [compound 775], for which the logP (value marked [b]) is 2.77^[b].

With `Cc1cccc(C=NOCCCCON=Cc2cccc(C)n2)n1` [compound 776], the logP (value marked [b]) is 2.16^[b]. Turning to `CC(=NOC/C=C\CON=C(C)c1cccc(C)n1)c1cccc(C)n1` [compound 778], the logP (value marked [b]) was 3.31^[b].

On to `CC(=NOC/C=C/CON=C(C)c1ccccn1)c1ccccn1` [compound 781], for which the logP (value marked [b]) was 2.84^[b]. On to `CC(=NOCC(C)CON=C(C)c1cc(Cl)cc(C)n1)c1cc(Cl)cc(C)n1` (stereo not shown) [compound 792], for which the logP is 7.36^[a] (value marked [a]) and 7.36^[c] (value marked [c]). Consider `C=C(CON=C(Cl)c1cc(C)cc(C)n1)CON=C(Cl)c1cc(C)cc(C)n1` [compound 795], for which the logP (value marked [a]) was 4.62^[a].

Turning to `C=C(CON=C(C#CC)c1cccc(C)n1)CON=C(C#CC)c1cccc(C)n1` [compound 803], for the setting “value marked [b]”, the logP was 3.07^[b]. Take `CC(=NOCC(C)(C)CON=C(C)c1cc(Cl)cc(C)n1)c1cc(Cl)cc(C)n1` [compound 804]: the logP (value marked [a]) is 7.36^[a].

Turning to `CC(=NOCC1(CON=C(C)c2cc(Cl)cc(C)n2)CC1)c1cc(Cl)cc(C)n1` [compound 805], the logP (value marked [a]) is 7.02^[a). `C=C(CON=C(C)c1cccc(C)n1)CON=C(N)c1ccc(C)c(C)n1` [compound 808]: where the note is “value marked [a]”, the logP was 2.38^[a]. As to `CCC(CC)(CON=C(C)c1nc(C)ccc1C)CON=C(C)c1nc(C)ccc1C` [compound 812], the logP (value marked [b]) was 5.24^[b] and the logP (value marked [c]) is 6.66^[c]. On to `CC(=NOCC(C)(C)CON=C(C)c1cccc(C2CC2)n1)c1cccc(C2CC2)n1` [compound 814], for which the logP (value marked [a]) was 7.36^[a]. Regarding `CC(=NOCC(C)CON=C(C)c1cccc(C2CC2)n1)c1cccc(C2CC2)n1` (stereo not shown) [compound 815], where the note is “value marked [a]”, the logP was 7.36^[a]. With `C=C(CON=C(SCCC)c1cccc(C)n1)CON=C(SCCC)c1cccc(C)n1` [compound 819], the logP (value marked [a]) is 4.9^[a]. Same read-out and setting: then `C=C(CON=C(Cl)c1cccc(C)n1)CON=C(Cl)c1ccc(C)c(C)n1` [compound 822], with 4.12^[a]. `Cc1cccc(C(C#N)=NOCC(C)CON=C(C#N)c2cccc(C)n2)n1` (stereo not shown) [compound 827]: the logP (value marked [a]) was 4.20^[a]. With `C=C(CON=C(C#N)c1cccc(C)n1)CON=C(C#N)c1ccc(C)c(C)n1` [compound 828], the logP (value marked [a]) is 4.20^[a].

Turning to `C=C(CON=C(C#N)c1cc(C)cc(C)n1)CON=C(C#N)c1cc(C)cc(C)n1` [compound 830], where the note is “value marked [a]”, the logP is 4.50^[a].

`C=C(CON=C(N)c1ccc(C)c(C)n1)CON=C(Cl)c1cccc(C)n1` [compound 831]: the logP (value marked [a]) was 4.06^[a].

On to `CC(=NOCCC(C)CCON=C(C)c1ccc(C(F)(F)F)cn1)c1ccc(C(F)(F)F)cn1` (stereo not shown) [compound 832], for which the logP (value marked [a]) is 7.36^[a].

Consider `Cc1cc(C)nc(C(Cl)=NOCC(C)CON=C(Cl)c2cc(C)cc(C)n2)c1` (stereo not shown) [compound 833], for which the logP (value marked [a]) is 4.17^[a]. Turning to `COc1c(Cl)cc(C(C)=NOCC(C)CON=C(C)c2cc(Cl)c(OC)c(C)n2)nc1C` (stereo not shown) [compound 839], the logP is 7.36^[b] (value marked [b]) and 7.36^[c] (value marked [c]). Consider `CC(=NOCC(C)CON=C(C)c1cc(C2CC2)cc(C)n1)c1cccc(C)n1` (stereo not shown) [compound 845], for which the logP by setting is: (value marked [a]) 3.21^[a]; (value marked [c]) 6.40^[c]. For `CC(=NOCC(C)CON=C(C)c1cc(C2CC2)cc(C)n1)c1cc(Cl)cc(C)n1` (stereo not shown) [compound 846], in that order: 5.23^[a] and 7.36^[c]. With `CC(=NOCC1(CON=C(C)c2cccc(NCC3CC3)n2)CC1)c1cccc(NCC2CC2)n1` [compound 849], where the note is “value marked [b]”, the logP is 1.93^[b]. As to `CC(=NOCC1(CON=C(C)c2cccc(NCC3CC3)n2)CCC1)c1cccc(NCC2CC2)n1` [compound 850], the logP (value marked [b]) was 2.28^[b]. Consider `CC(=NOC(=O)NCCCCNC(=O)ON=C(C)c1ccc(C)c(C)n1)c1ccc(C)c(C)n1` [compound 851], for which, for the setting “value marked [a]”, the logP was 2.04^[a]. In the case of `CC(=NOC(=O)NCCCCNC(=O)ON=C(C)c1cc(C)cc(C)n1)c1cc(C)cc(C)n1` [compound 852], the logP (value marked [a]) was 1.63^[a]. In the case of `CCOC(=O)C(C)(CON=C(C)c1cccc(C)n1)CON=C(C)c1cccc(C)n1` (stereo not shown) [compound 853], the logP was 4.06^[b] (value marked [b]) and 5.00^[c] (value marked [c]).

Regarding `CCOC(=O)C(C)(CON=C(C)c1ccc(C)c(C)n1)CON=C(C)c1ccc(C)c(C)n1` (stereo not shown) [compound 854], the logP was 3.85^[b] (value marked [b]) and 5.82^[c] (value marked [c]). On to `CCOC(=O)C(C)(CON=C(C)c1cc(C)cc(C)n1)CON=C(C)c1cc(C)cc(C)n1` (stereo not shown) [compound 855], for which the logP is, setting by setting: (value marked [b]) 2.79^[b]; (value marked [c]) 5.72^[c]. Take `CC(=NOCC1(CON=C(C)c2cccc(C)n2)COC(=O)N1)c1cccc(C)n1` (stereo not shown) [compound 856]: the logP is 1.99^[b] (value marked [b]) and 2.97^[c] (value marked [c]).

Regarding `CC(=NOCC1(CON=C(C)c2ccc(C)c(C)n2)COC(=O)N1)c1ccc(C)c(C)n1` (stereo not shown) [compound 857], the logP runs as follows: (value marked [b]) 1.96^[b]; (value marked [c]) 3.70^[c]. Consider `CC(=NOCC1(CON=C(C)c2cc(C)cc(C)n2)COC(=O)N1)c1cc(C)cc(C)n1` (stereo not shown) [compound 858], for which the logP is 1.43^[b] (value marked [b]) and 3,55^[c] (value marked [c]). With `CC(=NOCC1(CON=C(C)c2nc(C)ccc2C)COC(=O)N1)c1nc(C)ccc1C` (stereo not shown) [compound 859], the logP runs as follows: (value marked [b]) 1.70^[b]; (value marked [c]) 2.81^[c].

On to `CCOC(=O)C(C)(CON=C(C)c1nc(C)ccc1C)CON=C(C)c1nc(C)ccc1C` (stereo not shown) [compound 860], for which the logP reads like this: (value marked [b]) 3.03[b]; (value marked [c]) 4.72^[c]. `CC(=NOC(=O)NCCCC(C)CNC(=O)ON=C(C)c1ccc(C)c(C)n1)c1ccc(C)c(C)n1` (stereo not shown) [compound 861]: for the setting “value marked [a]”, the logP is 2.55^[a].

Regarding `CC(=NOC(=O)NCCCC(C)CNC(=O)ON=C(C)c1cc(C)cc(C)n1)c1cc(C)cc(C)n1` (stereo not shown) [compound 862], for the setting “value marked [a]”, the logP is 2.06^[a]. With `CC(=NOC(=O)NCCCC(C)CNC(=O)ON=C(C)c1cccc(C)n1)c1cccc(C)n1` (stereo not shown) [compound 863], the logP (value marked [a]) is 2.46^[a]. `CC(=NOC(=O)NCCCCNC(=O)ON=C(C)c1cccc(C)n1)c1cccc(C)n1` [compound 864]: where the note is “value marked [a]”, the logP was 1.97^[a]. As for `CC=Cc1cc(C)nc(C(C)=NOCC(C)CON=C(C)c2cc(C=CC)cc(C)n2)c1` (stereo not shown) [compound 866], the logP reads like this: (value marked [a]) 4.57^[a]; (value marked [b]) 4.57^[b]. Turning to `CC(=NOCC(C)CON=C(C)c1cc(CO)cc(C)n1)c1cc(CO)cc(C)n1` (stereo not shown) [compound 868], the logP (value marked [b]) was 1.31^[b] and the logP (value marked [c]) is 2.67^[c]. Take `CC(=NOCC(C)CON=C(C)c1cc(C(F)(F)F)cc(C)n1)c1cc(C(F)(F)F)cc(C)n1` (stereo not shown) [compound 869]: the logP (value marked [a]) was 7.36^[a], the logP (value marked [b]) is 7.36^[b] and the logP (value marked [c]) is 5.53^[c]. For `C=CCOC(C)(CON=C(C)c1cccc(C)n1)C(C)ON=C(C)c1cccc(C)n1` (stereo not shown) [compound 872], in that order: 6.13^[a], 6.13^[b] and 6.96^[c].

Turning to `C#Cc1cc(C)nc(C(C)=NOCC(C)CON=C(C)c2cc(C#C)cc(C)n2)c1` (stereo not shown) [compound 873], the logP by setting is: (value marked [a]) 6.65^[a]; (value marked [b]) 6.65^[b]; (value marked [c]) 6.61^[c]. For `COCC#Cc1cc(C)nc(C(C)=NOCC(C)CON=C(C)c2cc(C#CCOC)cc(C)n2)c1` (stereo not shown) [compound 874], the logP (value marked [a]) is 6.76^[a], the logP (value marked [b]) was 6.76^[b] and the logP (value marked [c]) is 6.87^[c]. On to `CC(=O)OCC#Cc1cc(C)nc(C(C)=NOCC(C)CON=C(C)c2cc(C#CCOC(C)=O)cc(C)n2)c1` (stereo not shown) [compound 875], for which the logP is 6.25^[a] (value marked [a]), 6.25^[b] (value marked [b]) and 6.31^[c] (value marked [c]). `CC(=NOCC(C)CON=C(C)c1ccc(C)c(C)n1)c1cc(Cl)cc(C)n1` (stereo not shown) [compound 876]: the logP was 6.52^[a] (value marked [a]), 6.52^[b] (value marked [b]) and 7.36^[c] (value marked [c]). In the case of `CC(=NOCC(C)CON=C(C)c1cc(Cl)cc(C)n1)c1cccc(C)n1` (stereo not shown) [compound 877], the logP runs as follows: (value marked [a]) 6.58^[a]; (value marked [b]) 6.58^[b]; (value marked [c]) 7.36^[c]. As to `CCC(CC)(CON=C(C)c1nc(C)ccc1C)CON=C(C)c1nc(C)ccc1C` [compound 882], the logP reads like this: (value marked [b]) 3.90^[b]; (value marked [c]) 5.41^[c].

With `CCC(=NOCC(C)(C)CON=C(CC)c1cccc(C)n1)c1cccc(C)n1` [compound 883], the logP reads like this: (value marked [b]) 6.81^[b]; (value marked [c]) 7.36^[c]. In the case of `CCOC(=O)C(C)(CON=C(C)c1nc(C)ccc1C)CON=C(C)c1nc(C)ccc1C` (stereo not shown) [compound 884], the logP (value marked [b]) was 2.47^[b] and the logP (value marked [c]) was 3.84^[c]. With `Cc1cc(C)nc(/C(N)=N/OCC(C)CO/N=C(\N)c2nc(C)cc(C)n2)n1` (stereo not shown) [drawing 85, N′,N″-[(2-methylpropane-1,3-diyl)bis(oxy)]bis(4,6-dimethylpyrimidine-2-carboximidamide)], the chromatographic logP (reversed-phase HPLC column (C 18), HCO2H, HPLC reversed-phase column (C 18), 43° C., read-out: logP (HCO2H)) was 1.81.
